This is an account of results in patent US11999746B2, “Compounds” (GlaxoSmithKline Intellectual Property Development Limited, priority 2014, dated 2024).

Structures can show the parent of a compound that is named as a salt.

Assay [1] deals with proinflammatory (M1) and anti-inflammatory (M2) markers in splenic and CNS infiltrating macrophages. In words: Ex vivo analysis of M1 and M2 markers in macrophages of EAE rats by realtime PCR. Further details: species or system rat. To be noted: macrophages of compound treated EAE rats, splenic macrophages harvested at day 13 post MBP-immunization. The method, then: Ex vivo analysis of proinflammatory (M1) and anti-inflammatory (M2) markers in control and compound treated EAE rats. Splenic macrophages were harvested at day 13 post MBP-immunization and assayed for expression of a variety of markers by realtime PCR. CNS infiltrating cells were harvested and macrophages were analyzed for expression of M1 and M2 markers by realtime PCR.

Assay [2] deals with experimental autoimmune encephalomyelitis (EAE) rats. In words: Rat experimental autoimmune encephalomyelitis (EAE) model, preventive treatment. It is filed as in vivo. Conditions: compound administered from day 0 until day 22. As to the method: A further study was carried out to study the impact of Lp-PLA2 inhibitors on modulating M1/M2 imbalance. In this study, rats were induced to develop experimental autoimmune encephalomyelitis (EAE) by immunization with myelin basic protein (MBP) antigen and treated with a known Lp-PLA2 inhibitor: 5-((9-Methoxy-4-oxo-6,7-dihydro-4H-pyrimido[6,1-a]isoquinolin-2-yl)oxy)-2-(3-(trifluoromethyl)phenoxy)benzonitrile (See PCT application no. PCT/CN2011/001597). In this preventive treatment model, the compound was administered at day 0 (day of immunization) and continued to administer until day 22. The study lasted for 25 days. Rats were subsequently monitored for symptoms of EAE. Rats were immunized with MBP to develop EAE and symptoms were monitored daily. Plasma Lp-PLA2 activity, OxLDL, and LysoPC concentration were determined at different time points through the course of EAE.

Assay [3] addresses T1, Lp-PLA2 in human plasma (Homo sapiens, UniProt Q13093).
T1 construct: from tissue; host or cells: pooled human plasma
T1 sequence (Q13093 22-441): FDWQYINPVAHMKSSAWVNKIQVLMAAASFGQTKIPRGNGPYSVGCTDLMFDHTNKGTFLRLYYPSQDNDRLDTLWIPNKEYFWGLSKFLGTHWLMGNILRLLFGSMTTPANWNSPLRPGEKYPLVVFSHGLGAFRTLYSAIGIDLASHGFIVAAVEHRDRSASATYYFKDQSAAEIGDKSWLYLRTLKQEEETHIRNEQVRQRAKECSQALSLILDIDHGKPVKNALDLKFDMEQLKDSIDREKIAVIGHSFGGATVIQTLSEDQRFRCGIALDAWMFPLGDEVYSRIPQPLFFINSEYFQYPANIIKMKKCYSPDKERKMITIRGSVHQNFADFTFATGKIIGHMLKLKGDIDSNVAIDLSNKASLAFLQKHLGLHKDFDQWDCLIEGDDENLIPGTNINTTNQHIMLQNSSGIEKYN
In words: (3b) Lp-PLA2 human plasma alternative Thio-PAF assay. It is filed as biochemical. To be noted: (3b) alternative Thio-PAF assay, pooled human plasma; Examples of 266-412 were tested here; read-out: pIC50 in the Lp-PLA2 human plasma assay (converted). Put shortly: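 Pooled human plasma was preincubated with compound for 15 min at RT. Substrate solution (2 mM 2-thio-PAF, 52 μM CPM, 2.5 mM NEM in 50 mM HEPES pH 7.4, 150 mM NaCl, 1 mM CHAPS; pre-addition concentrations) was added, and the reaction was quenched with 5% TFA after 3 min. Fluorescence was read at ex 380/em 485 nm and fitted to give pIC50.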

Assay [4] deals with T2, recombinant human Lp-PLA2 (Homo sapiens, UniProt Q13093).
T2 sequence (Q13093 22-441): T1 sequence (Q13093 22-441)
In words: (1b) hrThioPAF assay, recombinant human Lp-PLA2. It is filed as biochemical. To be noted: Examples 266-412 were tested here, one experiment or average of multiple experiments, read-out: rhLp-PLA2 (pIC50) (converted). In short, it runs like this: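 Fluorogenic assay: 20 pM rhLp-PLA2 in 50 mM HEPES pH 7.4, 150 mM NaCl, 1 mM CHAPS with 1:3 serially diluted compounds; substrate mix of 40 μM 2-thio-PAF, 40 μM CPM, 400 μM NEM (pre-addition levels). 20 min at 25 °C in the dark; fluorescence ex 380/em 485 nm, pIC50 by curve fitting.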

`COc1ccc2c(c1)CCn1c-2cc(Oc2ccc(Oc3cccc(C(F)(F)F)c3)c(C#N)c2)nc1=O` [5-((9-Methoxy-4-oxo-6,7-dihydro-4H-pyrimido[6,1-a]isoquinolin-2-yl)oxy)-2-(3-(trifluoromethyl)phenoxy)benzonitrile]: in assay [1], the “M1 (proinflammatory) markers” value is recorded as “decrease” and the “M2 (anti-inflammatory) markers” value is listed as “increase”. In addition, in assay [2] (rat EAE plasma), the “plasma Lp-PLA2 activity” value was “decreased” and the “plasma LysoPC levels” value is given as “decreased”. Also, in assay [2] (rats immunized with MBP, study lasted 25 days), the “clinical disease (symptoms of EAE)” value is “reduction in clinical disease”.
`CC(C)S(=O)(=O)N1CCN2c3cc(OCc4ccc(F)c(C#N)c4)nc(=O)n3CC2C1` (stereo not drawn) [Example E295, 2-Fluoro-5-(((2-(isopropylsulfonyl)-9-oxo-2,3,4,9,11,11a-hexahydro-1H-pyrazino[1′,2′:3,4]imidazo[1,2-c]pyrimidin-7-yl)oxy)methyl)benzonitrile 2,2,2-trifluoroacetate]: the IC50 in assay [3] was not above 100 nM; in assay [4], not above 10000 nM.
The corresponding values for `O=c1nc(OCc2cc(F)c(Oc3ccnc(C(F)(F)F)c3)c(F)c2)cc2n1C[C@H]1C[C@@H](O)CN21` [Example E384, (7R,8aR)-3-((3,5-Difluoro-4-((2-(trifluoromethyl)pyridin-4-yl)oxy)benzyl)oxy)-7-hydroxy-7,8,8a,9-tetrahydropyrrolo[1′,2′:3,4]imidazo[1,2-c]pyrimidin-1(6H)-one] are not above 100 nM and not above 10000 nM.
With `NC1(C(=O)N2CCN3c4cc(OCc5ccc(F)c(F)c5)nc(=O)n4CC3C2)CC1` (stereo not drawn) [Example E333, 2-(1-Aminocyclopropanecarbonyl)-7-((3,4-difluorobenzyl)oxy)-3,4,11,11a-tetrahydro-1H-pyrazino[1′,2′:3,4]imidazo[1,2-c]pyrimidin-9(2H)-one hydrochloride], the IC50 in assay [3] is not above 100 nM; in assay [4], not above 10000 nM.
The corresponding values for `NC1(C(=O)N2CCN3c4cc(OCc5ccc(F)c(F)c5)nc(=O)n4CC3C2)CCC1` (stereo not drawn) [Example E344, 2-(1-Aminocyclobutanecarbonyl)-7-((3,4-difluorobenzyl)oxy)-3,4,11,11a-tetrahydro-1H-pyrazino[1,2′:3,4]imidazo[1,2-c]pyrimidin-9(2H)-one] are not above 100 nM and not above 10000 nM.
With `O=C([C@H]1CCCN1)N1CCN2c3cc(OCc4ccc(F)c(F)c4)nc(=O)n3CC2C1` (stereo partly drawn) [Example E343, 7-((3,4-Difluorobenzyl)oxy)-2-((R)-pyrrolidine-2-carbonyl)-3,4,11,11a-tetrahydro-1H-pyrazino[1,2′:3,4]imidazo[1,2-c]pyrimidin-9(2H)-one], the results for the IC50 in assay [3] and in assay [4] were not above 100 nM and not above 10000 nM, respectively.
With `O=C1CN2c3cc(OCc4cc(F)c(Oc5ccnc(C(F)(F)F)c5)c(F)c4)nc(=O)n3CC2CN1` (stereo not drawn) [Example E351, 7-((3,5-Difluoro-4-((2-(trifluoromethyl)pyridin-4-yl)oxy)benzyl)oxy)-11,11a-dihydro-1H-pyrazino[1′,2′:3,4]imidazo[1,2-c]pyrimidine-3,9(2H,4H)-dione], the IC50 is not above 100 nM in assay [3] and not above 1 nM in assay [4].
For `O=C([C@@H]1CCN1)N1CCN2c3cc(OCc4ccc(F)c(F)c4)nc(=O)n3CC2C1` (stereo partly drawn) [Example E339, 2-((S)-azetidine-2-carbonyl)-7-((3,4-difluorobenzyl)oxy)-3,4,11,11a-tetrahydro-1H-pyrazino[1′,2′:3,4]imidazo[1,2-c]pyrimidin-9(2H)-one], in that order: not above 100 nM and not above 10000 nM.
The corresponding values for `CC(=O)N1CCN2c3cc(OCc4ccc(F)c(F)c4)nc(=O)n3CC2C1` (stereo not drawn) [Example E315, 2-Acetyl-7-((3,4-difluorobenzyl)oxy)-3,4,11,11a-tetrahydro-1H-pyrazino[1′,2′:3,4]imidazo[1,2-c]pyrimidin-9(2H)-one] are not above 100 nM and not above 100 nM.
Consider `O=C([C@@H]1CCCN1)N1CCN2c3cc(OCc4ccc(F)c(F)c4)nc(=O)n3CC2C1` (stereo partly drawn) [Example E340, 7-((3,4-Difluorobenzyl)oxy)-2-((S)-pyrrolidine-2-carbonyl)-3,4,11,11a-tetrahydro-1H-pyrazino[1,2′:3,4]imidazo[1,2-c]pyrimidin-9(2H)-one], for which the IC50 in assay [3] is not above 100 nM; in assay [4], not above 10000 nM.
For `O=C(O)C(F)(F)F.[2H]C1([2H])C2CNCCN2c2cc(OCc3ccc(F)c(C#N)c3)nc(=O)n21` (stereo not drawn) [Example E269, 5-(((11,11-Dideutero-9-oxo-2,3,4,9,11,11a-hexahydro-1H-pyrazino[1′,2′:3,4]imidazo [1,2-c]pyrimidin-7-yl)oxy)methyl)-2-fluorobenzonitrile 2,2,2-trifluoroacetate], the IC50 was not above 100 nM in assay [3] and not above 10000 nM in assay [4].
In the case of `O=c1nc(OCc2ccc(F)c(F)c2)cc2n1CC1CNCCN21` (stereo not drawn) [Example E274, 7-((3,4-Difluorobenzyl)oxy)-3,4,11,11a-tetrahydro-1H-pyrazino[1′,2′:3,4] imidazo [1,2-c]pyrimidin-9(2H)-one], the IC50 in assay [3] and in assay [4] was not above 100 nM in each case.
On to `CCCN1CCN2c3cc(OCc4ccc(F)c(F)c4)nc(=O)n3CC2C1` (stereo not drawn) [Example E304, 7-((3,4-Difluorobenzyl)oxy)-2-propyl-3,4,11,11a-tetrahydro-1H-pyrazino[1′,2′:3,4]imidazo[1,2-c]pyrimidin-9(2H)-one], for which the IC50 in assay [3] was not above 100 nM; in assay [4] it was not above 10000 nM.
The corresponding values for `N#Cc1cc(COc2cc3n(c(=O)n2)CC2CN(CC(=O)O)CCN32)ccc1F` (stereo not drawn) [Example E324, 2-(7-((3-Cyano-4-fluorobenzyl)oxy)-9-oxo-3,4,11,11a-tetrahydro-1H-pyrazino[1,2′:3,4]imidazo[1,2-c]pyrimidin-2(9H)-yl)acetic acid, trifluoroacetic acid Salt] are not above 100 nM and not above 10000 nM.
For `N#Cc1cc(COc2cc3n(c(=O)n2)CC2COCCN32)ccc1F` (stereo not drawn) [Example E329, 2-Fluoro-5-(((9-oxo-1,3,4,9,11,11a-hexahydropyrimido[6′,1′:2,3]imidazo[5,1-c][1,4]oxazin-7-yl)oxy)methyl)benzonitrile], in that order: not above 100 nM and not above 10000 nM.
As for `CS(=O)(=O)N1CCN2c3cc(OCc4ccc(F)c(C#N)c4)nc(=O)n3CC2C1` (stereo not drawn) [Example E286, 2-Fluoro-5-(((2-(methylsulfonyl)-9-oxo-2,3,4,9,11,11a-hexahydro-1H-pyrazino[1′,2′:3,4]imidazo[1,2-c]pyrimidin-7-yl)oxy)methyl)benzonitrile hydrochloride], the IC50 in assay [3] is not above 100 nM; in assay [4], not above 10000 nM.
For `CN1CC2Cn3c(cc(OCc4ccc(F)c(C#N)c4)nc3=O)N2CC1=O` (stereo not drawn) [Example E357, 2-Fluoro-5-(((2-methyl-3,9-dioxo-2,3,4,9,11,11a-hexahydro-1H-pyrazino[1,2′:3,4]imidazo[1,2-c]pyrimidin-7-yl)oxy)methyl)benzonitrile], in that order: not above 100 nM and not above 10000 nM.
For the compound `O=c1nc(OCc2cc(F)c(Oc3cncc(C(F)(F)F)c3)c(F)c2)cc2n1CC1CNCCN21` (stereo not drawn) [Example E273, 7-((3,5-Difluoro-4-((5-(trifluoromethyl)pyridin-3-yl)oxy)benzyl)oxy)-3,4,11,11a-tetrahydro-1H-pyrazino[1′,2′:3,4] imidazo [1,2-c]pyrimidin-9(2H)-one], the IC50 was not above 100 nM in assay [3] and not above 1 nM in assay [4].
